{
  "source": "paper PMC7307922",
  "about": "(Journal of Medicinal Chemistry, 2020)",
  "target": "T1, hFFA3 (Homo sapiens, UniProt O14843)",
  "T1 sequence (O14843 1-346)": "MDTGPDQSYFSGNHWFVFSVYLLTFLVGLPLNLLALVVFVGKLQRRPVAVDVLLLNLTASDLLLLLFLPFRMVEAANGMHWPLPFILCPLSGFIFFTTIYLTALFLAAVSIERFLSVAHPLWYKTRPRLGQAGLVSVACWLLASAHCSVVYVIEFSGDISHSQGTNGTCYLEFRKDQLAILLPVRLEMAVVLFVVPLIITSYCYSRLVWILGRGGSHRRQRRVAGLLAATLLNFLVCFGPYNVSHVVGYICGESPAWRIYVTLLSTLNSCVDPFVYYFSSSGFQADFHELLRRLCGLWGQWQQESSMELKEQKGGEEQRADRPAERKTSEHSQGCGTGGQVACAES",
  "assay": "cell-based",
  "conditions": "for cAMP pEC50: compound alone, mean of ≥3 independent experiments ± standard error; for PAM pEC50: cAMP assay in the presence of 1 μM propionate; for allosteric effect on propionate response: cAMP assay together with propionate (56: 30 μM compound; 62, 63: 1 μM propionate); for Emax: HEK293, read-out: cAMP Emax",
  "procedure": "The ligands were initially screened in a human FFA3-dependent [^35S]GTPγS binding assay as this assay reflects receptor-mediated activation of Gi/o proteins and is known to generally correlate well with ligand affinity.[30] Analogues of particular interest were tested further in a cAMP inhibition assay as this is an important downstream effect of Gi-activation. […] It is furthermore performed in whole cells, is more downstream, includes G protein signal amplification, and therefore better reflects a more natural ligand–receptor response.\nHEK293 Flp-In T-Rex cells stably transfected with FFA3-eYFP receptors were incubated overnight with doxycycline to induce expression, then harvested, and cryopreserved. On the day of each experiment, cells were thawed and resuspended in stimulation buffer. Assays were carried out using a 384-well plate format with 3000 cells/well using the CisBio cAMP GS dynamic kit as per manufacturer’s protocol. Compounds were tested for the ability to inhibit 0.3 μM forskolin-induced cAMP production after co-incubation for 1 h. Reactions were measured using a PHERAstar FS plate reader (BMGLabtech, Aylesbury, UK).",
  "note": "Structures can show the parent of a compound that is named as a salt. Where two headings read alike, the source gives them in different places.",
  "data": [
    {"smiles": "CC1=C(C(=O)Nc2cc(Cl)ccc2Cl)C(CC2CCNCC2)C2=C(CCCC2=O)N1", "note": "(centres unmarked) [Compound 53, N-(2,5-Dichlorophenyl)-2-methyl-5-oxo-4-(piperidin-4-ylmethyl)-1,4,5,6,7,8-hexahydroquinoline-3-carboxamide Hydrochloride]", "values": [
      {"measurement": "cAMP pEC50", "setting": "hFFA3", "result": "nr^d"}
    ]},
    {"smiles": "CC1=C(C(=O)Nc2ccccc2C)[C@@H](c2ccco2)C2=C(CCCC2=O)N1", "note": "[(S)-1]", "values": [
      {"measurement": "EC50", "result": 2000, "unit": "nM"}
    ]},
    {"smiles": "COC(=O)C1=C(C)NC(C)=C(C(=O)Nc2ccccc2C)C1CC(C)C", "note": "(centres unmarked) [Compound 26, Methyl 4-isobutyl-2,6-dimethyl-5-(o-tolylcarbamoyl)-1,4-dihydropyridine-3-carboxylate]", "values": [
      {"measurement": "EC50", "result": "> 100000", "unit": "nM"},
      {"measurement": "PAM pEC50", "result": "6.16 ± 0.12"},
      {"measurement": "allosteric effect on propionate response", "result": "PAM"},
      {"measurement": "cAMP pEC50", "setting": "hFFA3", "result": "nr^c"}
    ]},
    {"smiles": "CC1=C(C(=O)Nc2cc(Cl)ccc2Cl)C(CC2CCN(C(=O)OC(C)(C)C)CC2)C2=C(CCCC2=O)N1", "note": "(centres unmarked) [Compound 56, tert-Butyl 4-((3-((2,5-dichlorophenyl)carbamoyl)-2-methyl-5-oxo-1,4,5,6,7,8-hexahydroquinolin-4-yl)methyl)piperidine-1-carboxylate]", "values": [
      {"measurement": "allosteric effect on propionate response", "result": "NAM"},
      {"measurement": "cAMP pEC50", "setting": "hFFA3", "result": "nr^d"}
    ]},
    {"smiles": "CC1=C(C(=O)Nc2ccccc2C)C(c2ccc(Br)o2)C2=C(CCCC2=O)N1", "note": "(centres unmarked) [Compound 44, 4-(5-Bromofuran-2-yl)-2-methyl-5-oxo-N-(o-tolyl)-1,4,5,6,7,8-hexahydroquinoline-3-carboxamide]", "values": [
      {"measurement": "Emax", "result": 95, "unit": "%"},
      {"measurement": "cAMP pEC50", "setting": "hFFA3", "result": "6.61 ± 0.02"}
    ]},
    {"smiles": "CC1=C(C(=O)Nc2cc(Cl)ccc2Cl)C(CN)C2=C(CCCC2=O)N1", "note": "(centres unmarked) [Compound 52, 4-(Aminomethyl)-N-(2,5-dichlorophenyl)-2-methyl-5-oxo-1,4,5,6,7,8-hexahydroquinoline-3-carboxamide Hydrochloride]", "values": [
      {"measurement": "cAMP pEC50", "setting": "hFFA3", "result": "nr^d"}
    ]},
    {"smiles": "CC1=C(C(=O)Nc2cc(Cl)ccc2Cl)C(CNC(=O)OC(C)(C)C)C2=C(CCCC2=O)N1", "note": "(centres unmarked) [Compound 55, tert-Butyl((3-((2,5-dichlorophenyl)carbamoyl)-2-methyl-5-oxo-1,4,5,6,7,8-hexahydroquinolin-4-yl)methyl)carbamate]", "values": [
      {"measurement": "cAMP pEC50", "setting": "hFFA3", "result": "nr^d"}
    ]},
    {"smiles": "CC1=C(C#N)C(CC(C)C)C(C(=O)Nc2ccccc2C)=C(C)N1", "note": "(centres unmarked) [Compound 27, 5-Cyano-4-isobutyl-2,6-dimethyl-N-(o-tolyl)-1,4-dihydropyridine-3-carboxamide]", "values": [
      {"measurement": "PAM pEC50", "result": "6.42 ± 0.09"},
      {"measurement": "cAMP pEC50", "setting": "hFFA3", "result": "3.99 ± 0.01"}
    ]},
    {"smiles": "CCCCCC1C(C(=O)Nc2ccccc2C)=C(C)NC2=C1C(=O)CCC2", "note": "(centres unmarked) [Compound 37, 2-Methyl-5-oxo-4-pentyl-N-(o-tolyl)-1,4,5,6,7,8-hexahydroquinoline-3-carboxamide]", "values": [
      {"measurement": "PAM pEC50", "result": "6.40 ± 0.10"},
      {"measurement": "cAMP pEC50", "setting": "hFFA3", "result": "5.60 ± 0.17"}
    ]},
    {"smiles": "CC1=C(C(=O)Nc2ccccc2C)C(/C=C/c2ccccc2)C2=C(CCCC2=O)N1", "note": "(centres unmarked) [Compound 39]", "values": [
      {"measurement": "EC50", "result": "> 10000", "unit": "nM"},
      {"measurement": "Emax", "result": 113, "unit": "%"},
      {"measurement": "PAM pEC50", "result": "6.14 ± 0.07"},
      {"measurement": "cAMP pEC50", "setting": "hFFA3", "result": "4.34 ± 0.18"}
    ]},
    {"smiles": "CC1=C(C(=O)Nc2ccccc2C)C(c2cc3ccccc3o2)C2=C(CCCC2=O)N1", "note": "(centres unmarked) [Compound 45, 4-(Benzofuran-2-yl)-2-methyl-5-oxo-N-(o-tolyl)-1,4,5,6,7,8-hexahydroquinoline-3-carboxamide]", "values": [
      {"measurement": "Emax", "result": 98, "unit": "%"},
      {"measurement": "cAMP pEC50", "setting": "hFFA3", "result": "6.00 ± 0.02"}
    ]},
    {"smiles": "CC1=C(C(=O)Nc2ccccc2C)C(C2CC2)C2=C(CCCC2=O)N1", "note": "(centres unmarked) [Compound 33, 4-Cyclopropyl-2-methyl-5-oxo-N-(o-tolyl)-1,4,5,6,7,8-hexahydroquinoline-3-carboxamide]", "values": [
      {"measurement": "Emax", "result": 102, "unit": "%"},
      {"measurement": "cAMP pEC50", "setting": "hFFA3", "result": "6.22 ± 0.10"},
      {"measurement": "EC50", "setting": "read-out: EC50 (cAMP assay), hFFA3", "result": 600, "unit": "nM"}
    ]},
    {"smiles": "CC1=C(C(=O)Nc2ccccc2C)C(c2ccc(C)o2)C2=C(CCCC2=O)N1", "note": "(centres unmarked) [Compound 42, 2-Methyl-4-(5-methylfuran-2-yl)-5-oxo-N-(o-tolyl)-1,4,5,6,7,8-hexahydroquinoline-3-carboxamide]", "values": [
      {"measurement": "Emax", "result": 100, "unit": "%"},
      {"measurement": "cAMP pEC50", "setting": "hFFA3", "result": "5.96 ± 0.03"}
    ]},
    {"smiles": "CCC1=C(C(=O)Nc2ccccc2C)C(c2ccco2)C2=C(CCCC2=O)N1", "note": "(centres unmarked) [Compound 22, 2-Ethyl-4-(furan-2-yl)-5-oxo-N-(o-tolyl)-1,4,5,6,7,8-hexahydroquinoline-3-carboxamide]", "values": [
      {"measurement": "Emax", "result": 95, "unit": "%"},
      {"measurement": "cAMP pEC50", "setting": "hFFA3", "result": "5.47 ± 0.04"}
    ]}
  ]
}
